Assay results reported in patent US20070167492A1, “Molluscicidal agents” (priority 2003, published 2007).

Tests used:
[1] = system: Deroceras reticulatum (grey field slug); assay: Example 1: pot test, treated winter wheat seed with 5 adult slugs per pot, 14 days; format: in vivo
How it was run: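 Fludioxonil-disinfected winter wheat seed (Kampa, 40 per pot) sown on quartz sand over potting soil with 5 adult slugs per pot; ±15° C., ±90% RH, 12 h light/12 h dark, 4 replicates. Damaged seeds, plants, dead slugs and fecal pellets counted up to day 14; F-tests and Student-tests.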

[2] = system: Deroceras reticulatum (grey field slug); assay: Example 2: pot re-test, treated winter wheat seed with 5 adult slugs per pot, 7 days; format: in vivo
How it was run: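 Pots sown with 40 treated winter wheat seeds on quartz sand over potting soil, each given 5 adult grey field slugs, kept at 18-19° C, ~95% RH, ~18 h light, no overhead irrigation; 4 replicates. Damaged seeds, intact plants, dead slugs and fecal pellets counted at 2, 3, 7 days; F-tests and Student tests.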

[3] = 2 ml formulated per kg seed, 2 days after sowing
[4] = 2 ml formulated per kg seed, 3 days after sowing
[5] = 2 ml formulated per kg seed, 7 days after sowing
[6] = 2 ml formulated per kg seed, 10 days after sowing
[7] = 2 ml formulated per kg seed, 14 days after sowing
[8] = 4 ml formulated per kg seed, 2 days after sowing
[9] = 4 ml formulated per kg seed, 3 days after sowing
[10] = 4 ml formulated per kg seed, 7 days after sowing
[11] = 4 ml formulated per kg seed, 10 days after sowing
[12] = 4 ml formulated per kg seed, 14 days after sowing
[13] = 10 ml formulated per kg seed, 2 days after sowing
[14] = 10 ml formulated per kg seed, 3 days after sowing
[15] = 10 ml formulated per kg seed, 7 days after sowing
[16] = 10 ml formulated per kg seed, 10 days after sowing
[17] = 10 ml formulated per kg seed, 14 days after sowing
[18] = Example 2, 2 ml formulated per kg seed, 2 days after sowing
[19] = Example 2, 2 ml formulated per kg seed, 3 days after sowing
[20] = Example 2, 2 ml formulated per kg seed, 7 days after sowing
[21] = Example 2, 4 ml formulated per kg seed, 2 days after sowing
[22] = Example 2, 4 ml formulated per kg seed, 3 days after sowing
[23] = Example 2, 4 ml formulated per kg seed, 7 days after sowing
[24] = Example 2, 10 ml formulated per kg seed, 2 days after sowing
[25] = Example 2, 10 ml formulated per kg seed, 3 days after sowing
[26] = Example 2, 10 ml formulated per kg seed, 7 days after sowing

## O=CC=Cc1ccccc1 [cinnamaldehyde]
[1]; 2 ml formulated per kg seed
  number of utilizable plants after 14 days: 6.8
  percentage of damaged seeds after 14 days: 64%
[1]; [3]
  Mean number of damaged seeds per pot: 2.0
  Mean number of dead slugs per pot: 0
[1]; [4]
  Mean number fecal pellets per pot: 47
  Mean number of damaged seeds per pot: 5.5
  Mean number of dead slugs per pot: 1.3
  Mean number of plants present per pot: 3.3
[1]; [5]
  Mean number fecal pellets per pot: 71
  Mean number of damaged seeds per pot: 24.5
  Mean number of dead slugs per pot: 1.3
  Mean number of plants present per pot: 5.0
[1]; [6]
  Mean number fecal pellets per pot: 80
  Mean number of damaged seeds per pot: 24.8
  Mean number of dead slugs per pot: 1.3
  Mean number of plants present per pot: 6.8
[1]; [7]
  Mean number fecal pellets per pot: 95
  Mean number of damaged seeds per pot: 25.8
  Mean number of dead slugs per pot: 1.8
  Mean number of plants present per pot: 6.8
[1]; 4 ml formulated per kg seed
  number of utilizable plants after 14 days: 0.5
  percentage of damaged seeds after 14 days: 73%
[1]; [8]
  Mean number of damaged seeds per pot: 3.3
  Mean number of dead slugs per pot: 0
[1]; [9]
  Mean number fecal pellets per pot: 46
  Mean number of damaged seeds per pot: 6.5
  Mean number of dead slugs per pot: 0
  Mean number of plants present per pot: 3.0
[1]; [10]
  Mean number fecal pellets per pot: 111
  Mean number of damaged seeds per pot: 26.5
  Mean number of dead slugs per pot: 0.3
  Mean number of plants present per pot: 1.3
[1]; [11]
  Mean number fecal pellets per pot: 152
  Mean number of damaged seeds per pot: 27.0
  Mean number of dead slugs per pot: 0.3
  Mean number of plants present per pot: 1.8
[1]; [12]
  Mean number fecal pellets per pot: 160
  Mean number of damaged seeds per pot: 29.0
  Mean number of dead slugs per pot: 0.8
  Mean number of plants present per pot: 0.8
[1]; 10 ml formulated per kg seed
  number of utilizable plants after 14 days: 0.5
  percentage of damaged seeds after 14 days: 37%
[1]; [13]
  Mean number of damaged seeds per pot: 4.0
  Mean number of dead slugs per pot: 0
[1]; [14]
  Mean number fecal pellets per pot: 54
  Mean number of damaged seeds per pot: 7.0
  Mean number of dead slugs per pot: 1.3
  Mean number of plants present per pot: 5.0
[1]; [15]
  Mean number fecal pellets per pot: 58
  Mean number of damaged seeds per pot: 10.3
  Mean number of dead slugs per pot: 1.3
  Mean number of plants present per pot: 0.3
[1]; [16]
  Mean number fecal pellets per pot: 77
  Mean number of damaged seeds per pot: 10.3
  Mean number of dead slugs per pot: 1.3
  Mean number of plants present per pot: 0.5
[1]; [17]
  Mean number fecal pellets per pot: 93
  Mean number of damaged seeds per pot: 14.8
  Mean number of dead slugs per pot: 1.3
  Mean number of plants present per pot: 0.8
[1]; Example 1, 2 or 10 ml per kg of seed, 3 days after the start
  dead slugs relative to the untreated seed: significantly more dead slugs
[1]; Example 1, all dosages (2, 4, 10 ml/kg), after 3 and 7 days
  damaged seeds relative to the untreated seed: significantly less damaged seeds
[1]; Example 1, winter wheat seed treatment, dosages tested
  protection / slug controlling effect (conclusion): no protection to the plant
[2]; Example 2
  fecal pellets in comparison to the control: equal number of fecal pellets
  number of plants present relative to untreated: no significantly different results
  phytotoxic effect on the seeds: phytotoxic effect on the seeds
  reduction of damaged seeds relative to the untreated control: more than 50%
  result of seed treatment against slugs (conclusion): does not result in the desired effect
[2]; Example 2, 2 ml formulated per kg seed
  percentage of damaged seeds after 7 days: 63%
[2]; [18]
  Mean number of damaged seeds per pot: 8.8
  Mean number of dead slugs per pot: 0
[2]; [19]
  Mean number of damaged seeds per pot: 15.0
  Mean number of dead slugs per pot: 0
[2]; [20]
  Mean number of damaged seeds per pot: 25.0
  Mean number of dead slugs per pot: 0.5
[2]; Example 2, 4 ml formulated per kg seed
  percentage of damaged seeds after 7 days: 36%
[2]; [21]
  Mean number of damaged seeds per pot: 5.0
  Mean number of dead slugs per pot: 0
[2]; [22]
  Mean number of damaged seeds per pot: 8.8
  Mean number of dead slugs per pot: 0
[2]; [23]
  Mean number of damaged seeds per pot: 14.3
  Mean number of dead slugs per pot: 0.8
[2]; Example 2, 10 ml formulated per kg seed
  percentage of damaged seeds after 7 days: 39%
[2]; [24]
  Mean number of damaged seeds per pot: 6.0
  Mean number of dead slugs per pot: 0
[2]; [25]
  Mean number of damaged seeds per pot: 10.5
  Mean number of dead slugs per pot: 0
[2]; [26]
  Mean number of damaged seeds per pot: 15.8
  Mean number of dead slugs per pot: 0.5
[2]; Example 2, two days after the start
  number of damaged seeds relative to the untreated seed: significant reduction in the number of damaged seeds
[2]; dosage 2 ml, 2 days
  Mean number of fecal pellets per pot: 45
  Mean number of plants present per pot: 0
[2]; dosage 2 ml, 3 days
  Mean number of fecal pellets per pot: 91
  Mean number of plants present per pot: 0
[2]; dosage 2 ml, 7 days
  Mean number of fecal pellets per pot: 124
  Mean number of plants present per pot: 0
  number of utilizable plants after 7 days: 0
[2]; dosage 4 ml, 2 days
  Mean number of fecal pellets per pot: 28
  Mean number of plants present per pot: 0
[2]; dosage 4 ml, 3 days
  Mean number of fecal pellets per pot: 58
  Mean number of plants present per pot: 0
[2]; dosage 4 ml, 7 days
  Mean number of fecal pellets per pot: 82
  Mean number of plants present per pot: 0
  number of utilizable plants after 7 days: 0
[2]; dosage 10 ml, 2 days
  Mean number of fecal pellets per pot: 42
  Mean number of plants present per pot: 0
[2]; dosage 10 ml, 3 days
  Mean number of fecal pellets per pot: 77
  Mean number of plants present per pot: 0
[2]; dosage 10 ml, 7 days
  Mean number of fecal pellets per pot: 91
  Mean number of plants present per pot: 0
  number of utilizable plants after 7 days: 0
